Reference: patent US8883437B2, “Nitroreductase enzymatic substrates” (bioMérieux S.A., priority 2010, dated 2014)

Key:
E. cloacae NCTC 11936 = test: Nitroreductase substrate in Columbia medium, growth and colony color; type: cell-based; details: 40 mg substrate in 400 ml Columbia medium, 24 hours at 37° C., colonies examined visually
Protocol: (§1) 40 mg of substrate were dissolved in 4 ml of dimethylsulfoxide and added to 400 ml of previously autoclaved Columbia medium. The medium was distributed in Petri dishes 90 mm in diameter at the rate of 20 ml per dish. Ten strains of microorganisms obtained from collections and belonging to various species of bacteria and yeasts are inoculated as spots of about 10 000 colony forming units. The media are incubated for 24 hours at 37° C. and then the colonies formed are examined visually.

P. rettgeri NCTC 7475 = test: as above; type: cell-based; details: 40 mg substrate in 400 ml Columbia medium, 24 hours at 37° C., colonies examined visually
Protocol: as §1

C[N+]1=C(C=Cc2ccc([N+](=O)[O-])cc2)C(C)(C)c2ccccc21.[I-] [Iodinated 2-(4-nitrostyryl)-1,3,3-trimethylindolinium]
Color (E. cloacae NCTC 11936): Pale pink
Color (P. rettgeri NCTC 7475): Pale pink
